Results on 2 molecules are retold here after US20120055467A1, “METERED-DOSE INHALER AND METHOD OF USING THE SAME” (CHIESI FARMACEUTICI S.P.A., priority 2010, published 2012).

This series in a line: Andersen Cascade Impactor (ACI) evaluation of pMDI spray drug delivery characteristics. The format is physicochemical. The protocol:
Spray characteristics of the system were evaluated by an Andersen cascade impactor fitted with a USP throat (App. 1, USP 33). […] This was repeated twice. Pre- and post-shot weights were recorded. […] The solutions were analysed by using a UPLC/MS (Ultra Performance Liquid Chromatography/Mass Spectrometry) system for the determination of the drug deposition.

The mark [1] stands for this setting: Ex 2/3, Standard MDI, single can, 0.22 mm orifice, mean, n=3.
[2] abbreviates: Ex 2, Dual MDI, Formulations 3+4, single 0.22 mm orifice, mean, n=2.
Where [3] appears, read: Ex 3, Dual MDI, Formulation 3 + placebo Formulation 5, single 0.22 mm orifice, mean, n=3.
[4] abbreviates: Ex 5, Dual-MDI, Formulations 8+3, single 0.22 mm orifice, mean, n=3.
The mark [5] stands for this setting: Ex 19, dual reservoir-single orifice prototype (FIG. 14B).
Where [6] appears, read: Ex 19, dual reservoir-single orifice prototype (FIG. 14B), BDP/Formoterol 100/6 μg/25 μl + glycopyrronium bromide 12.5 μg/25 μl.
Where [7] appears, read: Ex 20, triple reservoir-single orifice prototype (FIG. 16B).
Setting [8] is: Ex 20, triple reservoir-single orifice prototype (FIG. 16B), BDP/Formoterol + glycopyrronium bromide + budesonide 50 μg/25 μl.

Turning to `COc1ccc(C[C@@H](C)NC[C@H](O)c2ccc(O)c(NC=O)c2)cc1.COc1ccc(C[C@@H](C)NC[C@H](O)c2ccc(O)c(NC=O)c2)cc1.O=C(O)/C=C/C(=O)O` [Formoterol, Formoterol fumarate], the “Delivered Dose” value (Ex 2/3, Standard MDI, single can (BDP 100 μg/50 μl or formoterol fumarate 6 μg/50 μl), 0.22 mm orifice, mean, n=3) was found to be 4.1 µg; the “Delivered Dose” value (Ex 2, Dual MDI, Formulation 3 (formoterol fumarate 6 μg/25 μl) + Formulation 4 (BDP 100 μg/25 μl, glycerol) mixed, single 0.22 mm orifice, mean, n=2) turned out to be 3.2 µg; the “Delivered Dose” value (Ex 3, Dual MDI, Formulation 3 (formoterol 6 μg/25 μl) + placebo Formulation 5 (glycerol), single 0.22 mm orifice, mean, n=3) stood at 4.2 µg; the “Delivered Dose” value (Ex 5, Dual-MDI, Formulation 8 (budesonide 400 μg/63 μl) + Formulation 3 (formoterol 6 μg/25 μl), single 0.22 mm orifice, mean, n=3) came to 3.5 ± 0.7 µg; the “Delivered Dose” value under setting [5] came out at 3.6 µg; the “Delivered Dose” value under setting [7] was found to be 3.3 µg. In addition, the “FPD ≦ 5 μm” value reads like this: under setting [1], 2.1 µg; under setting [2], 1.9 µg; under setting [3], 2.7 µg; under setting [4], 1.9 ± 0.2 µg. Besides, the FPF under setting [1] is on record as 51.9%; the FPF under setting [2] came out at 61.1%; the FPF under setting [3] was 64.0%; the FPF under setting [4] worked out at 53.6 ± 6.6%; the FPF under setting [5] was found to be 44.3%; the FPF under setting [7] is reported as 33.9%. Moreover, the MMAD is, setting by setting: under setting [1], 0.9 μm; under setting [2], 2.1 μm; under setting [3], 1.5 μm; under setting [4], 1.7 ± 0.1 μm; under setting [5], 1.3 μm; under setting [7], 1.5 μm. The FPD under setting [5] was 1.6 µg and the FPD under setting [7] was 1.1 µg. Moreover, the “Metered Dose” value reads like this: under setting [6], 5.7 µg; under setting [8], 5.2 µg.

With `C[N+]1(C)CCC(OC(=O)C(O)(c2ccccc2)C2CCCC2)C1` (stereo not drawn) [Glycopyrronium bromide], under setting [5], the “Delivered Dose” value worked out at 7.9 µg, the FPD came to 3.5 µg, the FPF was 44.1% and the MMAD was 1.3 μm. The “Metered Dose” value under setting [6] is 11.3 µg. For the same molecule, under setting [7], the “Delivered Dose” value was 6.9 µg, the FPD was found to be 2.2 µg, the FPF was determined as 32.4% and the MMAD came out at 1.4 μm. The “Metered Dose” value under setting [8] worked out at 10.8 µg.
